Patent US12180461B2 (priority 2018, dated 2024)
Values after ≈ are worked out from the molar mass of the structure shown. Read-outs that look alike come from different tables or passages of the source.

Legend:
[1] = system: Legionella pneumophila isolates; test: microbe, parasite or virus in culture; format: cell-based; settings: for MIC50 / MIC90: Legionella pneumophila; for MIC50: read-out: MIC50 (average); for MIC90: read-out: MIC90 (average)
[2] = system: various strains of L. pneumophila; format: cell-based
[3] = system: Staphylococcus aureus (ATCC strain 29213); test: MIC of quality control strain on Mueller-Hinton agar and on Lasarus medium; format: cell-based
[4] = system: Legionella; format: cell-based
[5] = system: rats; settings: rat, in vivo, po
[6] = 92 Legionella pneumophila isolates on Lasarus solid medium
[7] = ATCC29213, S. aureus ATCC 29213 on Lasarus medium, read-out: MIC100 (on Lasarus medium)
[8] = ATCC29213, S. aureus ATCC 29213 on standard Mueller-Hinton agar, read-out: MIC100 (on M-Hinton)
[9] = average across 92 Legionella pneumophila isolates on Lasarus solid medium

In the case of CC[C@H]1OC(=O)[C@H](C)[C@@H](O[C@H]2C[C@@](C)(OC)[C@@H](O)[C@H](C)O2)[C@H](C)[C@@H](O[C@@H]2O[C@H](C)C[C@H](N(C)C)[C@H]2O)[C@](C)(O)C[C@@H](C)CN(C)[C@H](C)[C@@H](O)[C@]1(C)O [Azithromycin], the “Ranges (MIC100)” value [1, 6] is reported as 0.008 to 0.25 µg/mL, the MIC50 [1] is reported as 0.03 µg/mL (≈ 0.0401 µM) and the MIC90 [1] is reported as 0.125 µg/mL (≈ 0.167 µM). For the same molecule, the “number of strains that could grow (on average)” value ([2]; BCYE, antibiotic 0.25 μg/ml) was “more than 20 strains”, the “number of strains that could grow (on average)” value ([2]; BCYE, antibiotic 0.5 μg/ml) was > 5 strains and the “number of strains tested that could grow (on average)” value ([2]; Lasarus medium, antibiotic 0.03 μg/ml) was ~20 strains. The “number of strains tested that could grow” value ([2]; Lasarus medium, antibiotic 0.125 μg/ml) was “None”, the “number of strains that could grow (on average)” value ([2]; medium (Lasarus), antibiotic 0.06 μg/ml) was “less than 15 strains” and the MIC [3, 7] was 2 µg/mL. For the same molecule, the MIC [3, 8] was 2 µg/mL.

With [Ba+2].[Cl-].[Cl-] [BaCl2, barium chloride] the MIC50 [4] was 4 mM, the MIC90 [4] was 9 mM and the LD50 [5] was 78 mg/kg.

With O=C(N[C@H](CO)[C@H](O)c1ccc([N+](=O)[O-])cc1)C(Cl)Cl [Chloramphenicol] the “Ranges (MIC100)” value [1, 6] was 0.25 to 1 µg/mL, the MIC50 [1] was 0.5 µg/mL (≈ 1.55 µM) and the MIC90 [1] was 0.5 µg/mL (≈ 1.55 µM). It also gave an MIC [3, 7] of 4 µg/mL and an MIC [3, 8] of 4 µg/mL.

Work on [Cl-].[Cl-].[Sr+2] [SrCl, strontium chloride] yielded an MIC50 [4] of 18 mM, an MIC90 [4] of 18 mM and an LD50 [5] of 2250 mg/kg.

[Cl-].[Cl-].[Mg+2] [MgCl, magnesium chloride] showed an MIC50 [4] of 37 mM, an MIC90 [4] of 75 mM and an LD50 [5] of 2800 mg/kg.

For C[C@H]1COc2c(N3CCN(C)CC3)c(F)cc3c(=O)c(C(=O)O)cn1c23 [Levofloxacin], the “Ranges (MIC100)” value [1, 6] was 0.008 to 0.06 µg/mL, the MIC50 [1] was 0.03 µg/mL (≈ 0.083 µM) and the MIC90 [1] was 0.06 µg/mL (≈ 0.166 µM). The “number of strains that could grow (on average)” value ([2]; BCYE, antibiotic 1 μg/ml) was “more than 25 strains”, the “number of strains that could grow (on average)” value ([2]; BCYE, antibiotic 2 μg/ml) was “more than 15 strains” and the “number of strains tested that could grow (on average)” value ([2]; Lasarus medium, antibiotic 0/03 μg/ml) was ~30 strains. The MIC [3, 7] was 0.25 µg/mL and the MIC [3, 8] was 0.25 µg/mL.

With CC1(C)S[C@@H]2[C@H](NC(=O)[C@H](N)c3ccccc3)C(=O)N2[C@H]1C(=O)O [Ampacilin] the “MIC50 (average)” value [1] was 8 µg/mL (≈ 22.9 µM), the “MIC90 (average)” value [1] was 32 µg/mL (≈ 91.6 µM) and the “Ranges (MIC100)” value [1] was 1 to 32 µg/mL.

For [Cl-].[Li+] [LiCl, lithium chloride], the MIC50 [4] was 75 mM, the MIC90 [4] was 75 mM and the LD50 [5] was 526 mg/kg.

In the case of CO[C@H]1/C=C/O[C@@]2(C)Oc3c(C)c(O)c4c(O)c(c(/C=N/N5CCN(C)CC5)c(O)c4c3C2=O)NC(=O)/C(C)=C\C=C\[C@H](C)[C@H](O)[C@@H](C)[C@@H](O)[C@@H](C)[C@H](OC(C)=O)[C@@H]1C [Rifampacin], the “Ranges (MIC100)” value [1, 6] is reported as 0.002 to 0.008 µg/mL, the MIC50 [1] is reported as 0.004 µg/mL (≈ 0.00486 µM) and the MIC90 [1] is reported as 0.008 µg/mL (≈ 0.00972 µM). The “number of strains that could grow (on average)” value ([2]; BCYE, antibiotic 0.06 μg/ml) was “more than 30 strains”, the “number of strains that could grow (on average)” value ([2]; BCYE, antibiotic 0.125 μg/ml) was “more than 15 strains” and the “number of strains tested that could grow (on average)” value ([2]; Lasarus medium, antibiotic 0.004 μg/ml, quadruplicate) was ~35 strains. For the same molecule, the “number of strains that could grow (on average), reduced number” value ([2]; medium, antibiotic concentration printed as 0.004 μg/ml (second mention)) was “less than 15 strains”, the MIC [3, 7] was 0.016 µg/mL and the MIC [3, 8] was 0.016 µg/mL.

[Ca+2].[Cl-].[Cl-] [CaCl2, calcium chloride] was tested, and the MIC50 [4] was 9 mM, the MIC90 [4] was 18 mM and the LD50 [5] was 1000 mg/kg.

In the case of O=C(O)c1cn(C2CC2)c2cc(N3CCNCC3)c(F)cc2c1=O [Ciprofloxacin], the “Ranges (MIC100)” value [1, 6] is reported as 0.008 to 0.06 µg/mL, the MIC50 [1] is reported as 0.03 µg/mL (≈ 0.0905 µM) and the MIC90 [1] is reported as 0.06 µg/mL (≈ 0.181 µM).

beryllium sulfate [BeSO4] showed an MIC50 [4] of 4 mM and an MIC90 [4] of 4 mM.

CN(C)[C@@H]1C(O)=C(C(N)=O)C(=O)[C@@]2(O)C(O)=C3C(=O)c4c(O)cccc4[C@@](C)(O)[C@H]3C[C@@H]12 [Tetracycline] was tested, and the “Ranges (MIC100)” value [1, 6] was 32 to 128 µg/mL, the MIC50 [1] was 128 µg/mL (≈ 288 µM) and the MIC90 [1] was 128 µg/mL (≈ 288 µM).

For [Cl-].[Cs+] [CsCl, caesium chloride], the MIC50 [4] was 18 mM, the MIC90 [4] was 37 mM and the LD50 [5] was 2600 mg/kg.

In the case of Gentamycin, the “Ranges (MIC100)” value [1, 6] is reported as 0.06 to 1 µg/mL, the “MIC50 (average)” value [1, 9] is reported as 0.25 µg/mL and the “MIC90 (average)” value [1, 9] is reported as 0.5 µg/mL.

[Cl-].[Rb+] [RbCl, rubidium chloride] gave an MIC50 [4] of 150 mM, an MIC90 [4] of 150 mM and an LD50 [5] of 4440 mg/kg.

[Cl-].[Na+] [NaCl, sodium chloride] showed an MIC50 [4] of 150 mM, an MIC90 [4] of 150 mM and an LD50 [5] of 3000 mg/kg.
